Here are results for one compound from paper PMC12473906, “Comparing the Altis RepliGut Organoid System to MDCK Monolayers in Predicting the Oral Absorption of Lenalidomide” (Pharmaceutics, 2025).

A short description of this data set: RepliGut human jejunal organoid-derived monolayer permeability assay. Particulars: human.
The mark [1] stands for this setting: pH 7.4, with elacridar + Ko143 (concentrations not given).

One may read the Papp A→B as the apparent permeability from the apical to the basolateral side of a cell layer. For orientation: Papp B→A means how fast a substance crosses the layer from the basolateral side. In general, Papp refers to the rate of passage across a membrane or cell layer, normalised by area and donor concentration. Low values mean poor permeation, high ones ready permeation. By efflux ratio is commonly meant the permeability from basolateral to apical divided by that in the opposite direction, in the common usage. Under “pH 7.4”, `Nc1cccc2c1CN(C1CCC(=O)NC1=O)C2=O` (stereo not drawn) [Lenalidomide] had a Papp A→B at 3 h of 0.58 ×10⁻⁶ cm/s; a Papp B→A at 3 h of 2.64 ×10⁻⁶ cm/s; an apparent permeability coefficient (Papp) at 3 h of approximately 0.6 ×10⁻⁶ cm/s; a Papp at 3 h, 500 µM of 0.58 ×10⁻⁶ cm/s. Also, for the setting “pH 7.4, Efflux Ratio, human jejunal organoids, Papp B to A/Papp A to B”, the efflux ratio at 3 h is 4.6. Where the note is “pH 7.4, efflux ratio, intestinal organoids, all concentrations”, the efflux ratio at 3 h was in the range of 3 to 4. Also, the efflux ratio at 3 h (pH 7.4, with elacridar 5 µM + Ko143 1 µM, Efflux Ratio, human jejunal organoids + elacridar (5 μM) + Ko143 (1 μM)) was approximately 1. Further, under setting [1], the apparent permeability from apical to basolateral (Papp A→B) at 3 h is 0.52 ×10⁻⁶ cm/s and the Papp B→A at 3 h worked out at 0.8 ×10⁻⁶ cm/s.
